Measured values: patent US20190300857A1, “UNDIFFERENTIATED STEM CELL-REMOVING AGENT, AND METHOD FOR REMOVING UNDIFFERENTIATED STEM CELLS” (KEIO UNIVERSITY, priority 2016, published 2019)

Experiments:
Format in all cases: cell-based
[1] = test system: undifferentiated stem cells expressing OCT4 in cell mixture of cardiomyocytes derived from human iPS cells and human iPS cells; test: Culture of cell mixture of iPS-derived cardiomyocytes and iPS cells in Orlistat-containing medium, OCT4 immunostaining; conditions: Orlistat 10 μM (Orlistat(+)); 72 hours; StemFit or mTeSR1; FIGS. 7 to 8
Experimental: A cell mixture in a state in which purified and refined cardiomyocytes induced from human iPS cells and human iPS cells coexisted was prepared according to the procedure described above. In the cell mixture, immunostaining against OCT4 was performed. The cell mixture was cultured for 72 hours in StemFit medium (manufactured by AJINOMOTO) or mTeSR1 (manufactured by Stem Cell Technologies) containing Orlistat at a final concentration of 10 μM (Orlistat(+)). As a control, culture was carried out in the same manner in StemFit medium (manufactured by AJINOMOTO) or mTeSR1 (manufactured by Stem Cell Technologies) not containing Orlistat (Orlistat(−)). After culturing for 72 hours, cells expressing OCT4 were detected by immunostaining. In addition, the results of DAPI staining are also shown together. The results of three replicate tests in which the number of colonies of cells expressing Oct4 was quantified based on the results are shown in FIG. 8.

[2] = test system: human iPS cell line (253G4); test: Culture of human iPS cell line with Orlistat with or without palmitic acid, LIVE/DEAD Assay; conditions: Orlistat 0, 2, 6, 8 μM, 72 hours, FIGS. 13 to 14
Experimental: Orlistat (manufactured by Sigma, 04139) was added into StemFit medium (manufactured by AJINOMOTO) or mTeSR1 (manufactured by Stem Cell Technologies) so that each of a final concentration became concentrations as shown in FIG. 13 (2 μM, 6 μM, and 8 μM). Therefore a culture medium according to one embodiment of the present invention was obtained. Media obtained by adding palmitic acid (final concentration 50 μM), carnitine (final concentration 0.5 mM), and BSA (final concentration 8.3 μM) to each of the culture medium (0 μM) not containing Orlistat and the culture media containing Orlistat at the above final concentrations; and media obtained by adding only carnitine (final concentration 0.5 mM) and BSA (final concentration 8.3 μM) thereto were prepared. The human iPS cell line (253G4) was cultured for 72 hours in each of the above-mentioned media. After 72 hours of culture, live cells were detected with LIVE/DEAD Assay (L3224, manufactured by Thermo Fisher Scientific).

[3] = test system: H9: human embryonic stem cell (human ES cell) line; test: Culture of undifferentiated stem cell line in Orlistat-containing medium, ALP staining of living cells; conditions: Orlistat 0, 2, 4, 6, 8, 10 μM, 72 hours, StemFit or mTeSR1, FIG. 3
Experimental: (§1) Orlistat (manufactured by Sigma, 04139) was added into StemFit medium (manufactured by AJINOMOTO) or mTeSR1 (manufactured by Stem Cell Technologies) so that each of a final concentration became concentrations as shown in FIG. 3 (2 μM, 4 μM, 6 μM, 8 μM, and 10 μM). Therefore a culture medium according to one embodiment of the present invention was obtained. The following three cell lines were cultured for 72 hours in each of a culture medium not containing Orlistat (0 μM) and the culture media containing Orlistat at each of the above final concentrations. • 253G4: human induced pluripotent stem cell (human iPS cell) line • Ffl14: human induced pluripotent stem cell (human iPS cell) line • H9: human embryonic stem cell (human ES cell) line In regard to the activity of alkaline phosphatase (ALP) that the cells have, after 72 hours of culture, AP staining was performed by color development with […] (registered trademark) alkaline phosphatase staining kit (Sigma 86-R), and cells stained red were confirmed as living cells.

[4] = test system: Ffl14: human induced pluripotent stem cell (human iPS cell) line; test: as above; conditions: Orlistat 0, 2, 4, 6, 8, 10 μM, 72 hours, StemFit or mTeSR1, FIG. 3
Experimental: as §1

[5] = test system: 253G4: human induced pluripotent stem cell (human iPS cell) line; test: as above; conditions: Orlistat 0, 2, 4, 6, 8, 10 μM, 72 hours, StemFit or mTeSR1, FIG. 3
Experimental: as §1

## CCCCCCCCCCC[C@@H](C[C@@H]1OC(=O)[C@H]1CCCCCC)OC(=O)[C@H](CC(C)C)NC=O [Orlistat, N-formyl-L-leucine-(1S)-1-[[(2S,3S)-3-hexyl-4-oxo-2-oxetanyl]methyl]dodecyl ester]
[1]
  residual undifferentiated stem cells expressing OCT4: no residual undifferentiated stem cells expressing OCT4 were detected
[2]; culture medium (BSA): only carnitine 0.5 mM and BSA 8.3 μM added
  cell death of human iPS cells (LIVE/DEAD Assay): cell death of human iPS cells was induced in an Orlistat concentration-dependent manner
[2]; culture medium (PA-BSA): palmitic acid 50 μM, carnitine 0.5 mM and BSA 8.3 μM added
  cell death of human iPS cells (LIVE/DEAD Assay): cell death of human iPS cells was suppressed
[3]
  cell death of undifferentiated stem cells (ALP staining): cell death of each undifferentiated stem cell was induced in an Orlistat concentration-dependent manner
[4]
  cell death of undifferentiated stem cells (ALP staining): cell death of each undifferentiated stem cell was induced in an Orlistat concentration-dependent manner
[5]
  cell death of undifferentiated stem cells (ALP staining): cell death of each undifferentiated stem cell was induced in an Orlistat concentration-dependent manner
